Measured values reported in article PMC2919811 (Analytical biochemistry, 2010).
Where “and” joins values, the source holds several entries; their conditions need not be identical. Equal values may be shown once.

How the values were obtained:
[1] = stated in the introduction without data or own reference; cited from earlier work
OATP1B1 = OATP1B1 (Homo sapiens, UniProt Q9Y6L6); settings: 10 μM 8-FcA, 20 minutes
OCT1 = molecular target: T1, OCT1 (Homo sapiens, UniProt O15245); experiment: Cellular accumulation in CHO cells transiently transfected with OCT1; assay type: cell-based; settings: 10 μM 8-FcA, 20 minutes
T1 sequence (O15245 1-554): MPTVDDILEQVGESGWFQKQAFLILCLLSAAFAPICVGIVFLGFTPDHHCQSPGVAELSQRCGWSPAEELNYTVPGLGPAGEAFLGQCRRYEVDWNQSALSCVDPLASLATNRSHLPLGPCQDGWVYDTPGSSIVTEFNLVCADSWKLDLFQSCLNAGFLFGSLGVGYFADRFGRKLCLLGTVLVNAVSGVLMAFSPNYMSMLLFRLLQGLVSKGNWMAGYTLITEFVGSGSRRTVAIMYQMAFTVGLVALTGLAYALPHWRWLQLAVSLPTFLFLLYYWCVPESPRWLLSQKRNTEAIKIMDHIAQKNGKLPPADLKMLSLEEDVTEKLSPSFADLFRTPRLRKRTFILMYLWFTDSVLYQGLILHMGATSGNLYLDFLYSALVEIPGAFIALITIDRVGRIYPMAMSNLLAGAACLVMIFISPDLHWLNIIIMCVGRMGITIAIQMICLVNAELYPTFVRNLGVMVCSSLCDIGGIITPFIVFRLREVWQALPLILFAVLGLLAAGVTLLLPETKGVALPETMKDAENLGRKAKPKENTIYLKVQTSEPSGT

OATP2B1 = molecular target: T2, OATP2B1 (Homo sapiens, UniProt O94956); experiment: Cellular accumulation in CHO cells transiently transfected with OATP2B1; assay type: cell-based; settings: 10 μM 8-FcA, 20 minutes
T2 sequence (O94956 1-709): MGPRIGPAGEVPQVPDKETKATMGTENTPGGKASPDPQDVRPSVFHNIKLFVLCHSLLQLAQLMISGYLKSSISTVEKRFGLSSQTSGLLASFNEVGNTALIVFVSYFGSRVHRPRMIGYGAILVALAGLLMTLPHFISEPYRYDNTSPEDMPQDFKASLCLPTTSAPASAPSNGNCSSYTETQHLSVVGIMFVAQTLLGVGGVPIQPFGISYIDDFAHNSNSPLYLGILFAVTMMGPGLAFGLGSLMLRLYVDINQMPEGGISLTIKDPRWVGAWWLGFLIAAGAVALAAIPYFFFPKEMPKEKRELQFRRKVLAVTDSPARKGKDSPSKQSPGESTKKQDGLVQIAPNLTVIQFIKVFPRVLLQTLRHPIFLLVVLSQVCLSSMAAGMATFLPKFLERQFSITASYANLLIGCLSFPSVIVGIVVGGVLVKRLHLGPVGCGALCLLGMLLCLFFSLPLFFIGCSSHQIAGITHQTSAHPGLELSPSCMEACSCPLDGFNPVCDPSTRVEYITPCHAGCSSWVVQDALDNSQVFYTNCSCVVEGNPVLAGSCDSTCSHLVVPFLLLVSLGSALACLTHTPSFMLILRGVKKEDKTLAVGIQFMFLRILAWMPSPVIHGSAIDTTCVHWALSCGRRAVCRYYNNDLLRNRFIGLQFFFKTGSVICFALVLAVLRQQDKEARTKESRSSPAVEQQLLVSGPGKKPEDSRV

OAT3 = molecular target: T3, OAT3 (Homo sapiens, UniProt Q8TCC7); assay type: cell-based; settings: 10 μM 8-FcA, 20 minutes
T3 sequence (Q8TCC7 1-542): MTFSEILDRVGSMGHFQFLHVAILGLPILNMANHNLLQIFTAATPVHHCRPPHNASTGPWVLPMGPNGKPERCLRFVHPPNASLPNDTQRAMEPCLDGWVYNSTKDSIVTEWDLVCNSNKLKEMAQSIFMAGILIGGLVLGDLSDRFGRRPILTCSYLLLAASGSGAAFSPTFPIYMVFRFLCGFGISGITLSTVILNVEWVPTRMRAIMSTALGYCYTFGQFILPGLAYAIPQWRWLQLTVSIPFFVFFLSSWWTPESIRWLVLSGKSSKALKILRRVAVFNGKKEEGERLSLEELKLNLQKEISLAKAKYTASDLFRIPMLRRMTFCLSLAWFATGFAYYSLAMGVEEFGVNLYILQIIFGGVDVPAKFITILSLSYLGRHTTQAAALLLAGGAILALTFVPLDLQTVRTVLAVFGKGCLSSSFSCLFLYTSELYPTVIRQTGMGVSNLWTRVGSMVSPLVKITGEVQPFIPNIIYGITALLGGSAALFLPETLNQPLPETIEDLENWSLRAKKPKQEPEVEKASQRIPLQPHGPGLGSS

OATP1B3 = molecular target: T4, OATP1B3 (Homo sapiens, UniProt Q9NPD5); experiment: Substrate uptake and transport kinetics in CHO cells stably expressing OATP1B3
T4 sequence (Q9NPD5 1-702): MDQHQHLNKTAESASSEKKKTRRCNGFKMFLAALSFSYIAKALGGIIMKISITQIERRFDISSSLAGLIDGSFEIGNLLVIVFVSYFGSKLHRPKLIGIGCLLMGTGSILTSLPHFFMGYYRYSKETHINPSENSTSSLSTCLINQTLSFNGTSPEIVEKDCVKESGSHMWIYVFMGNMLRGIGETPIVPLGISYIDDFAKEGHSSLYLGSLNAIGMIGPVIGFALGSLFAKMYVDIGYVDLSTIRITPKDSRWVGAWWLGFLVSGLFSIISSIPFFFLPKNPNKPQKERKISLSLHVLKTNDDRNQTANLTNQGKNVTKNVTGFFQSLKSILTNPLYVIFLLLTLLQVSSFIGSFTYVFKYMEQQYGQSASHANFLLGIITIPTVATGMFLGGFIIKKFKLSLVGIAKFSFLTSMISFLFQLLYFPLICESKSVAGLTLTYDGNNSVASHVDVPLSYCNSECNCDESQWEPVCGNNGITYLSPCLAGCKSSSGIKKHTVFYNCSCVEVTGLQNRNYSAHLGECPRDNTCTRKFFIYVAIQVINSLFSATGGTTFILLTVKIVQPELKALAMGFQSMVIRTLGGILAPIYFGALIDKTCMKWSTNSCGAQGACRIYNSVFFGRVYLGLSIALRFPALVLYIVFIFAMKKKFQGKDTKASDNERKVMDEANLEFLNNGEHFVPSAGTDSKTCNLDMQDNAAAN

Chain of OATP1B1 (Q9Y6L6 whole entry): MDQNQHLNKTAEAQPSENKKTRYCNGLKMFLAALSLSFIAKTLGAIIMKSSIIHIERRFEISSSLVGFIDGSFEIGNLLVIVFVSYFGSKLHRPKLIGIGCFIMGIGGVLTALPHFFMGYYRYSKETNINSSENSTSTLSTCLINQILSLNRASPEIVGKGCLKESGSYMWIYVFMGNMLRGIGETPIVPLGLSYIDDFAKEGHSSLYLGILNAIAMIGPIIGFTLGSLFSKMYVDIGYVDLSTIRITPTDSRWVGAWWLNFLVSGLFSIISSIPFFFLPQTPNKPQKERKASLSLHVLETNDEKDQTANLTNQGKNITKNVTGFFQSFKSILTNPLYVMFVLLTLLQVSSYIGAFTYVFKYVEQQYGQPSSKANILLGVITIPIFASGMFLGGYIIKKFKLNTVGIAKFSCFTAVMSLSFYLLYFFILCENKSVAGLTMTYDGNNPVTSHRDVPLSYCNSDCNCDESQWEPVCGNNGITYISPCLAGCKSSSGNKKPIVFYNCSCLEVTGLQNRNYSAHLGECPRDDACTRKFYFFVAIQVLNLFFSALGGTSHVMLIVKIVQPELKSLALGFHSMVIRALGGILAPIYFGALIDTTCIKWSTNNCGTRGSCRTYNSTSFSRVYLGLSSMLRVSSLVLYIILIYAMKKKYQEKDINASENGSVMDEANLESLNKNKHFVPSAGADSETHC

## Nc1ncnc2c1nc(SCCNC(=S)Nc1ccc(-c3c4ccc(=O)cc-4oc4cc(O)ccc34)c(C(=O)O)c1)n2[C@@H]1O[C@@H]2COP(=O)(O)O[C@H]2[C@H]1O [8-FcA, 8-(2-[Fluoresceinyl]aminoethylthio) adenosine-3', 5'-cyclic monophosphate]
[1]
  aqueous solubility: very high aqueous solubility
OATP1B1
  cellular accumulation by fluorescence microscopy, OATP1B1: readily accumulated
OCT1
  cellular accumulation by fluorescence microscopy, OCT1: negative
OATP2B1
  cellular accumulation by fluorescence microscopy, OATP2B1: negative
OAT3
  cellular accumulation by fluorescence microscopy, OAT3: negative
OATP1B3
  transport efficiency, Vmax/Km (OATP1B3): 0.183 μL/min/cm^2
OATP1B3; 2 μM substrate, five minute accumulation, CHOvector = 1
  cellular accumulation relative to control, CHOOATP1B3: robust accumulation
OATP1B3; 8-FcA 0.25-25 μM, 10 min uptake, CHOvector subtracted, mean ± standard error
  Vmax of OATP1B3-mediated transport: 0.33 pmol/min/cm^2 and 0.33±0.02 pmol/min/cm^2
